# According to patent US20220218835A1, “COMBINATION THERAPY” (priority 2019, published 2022):
# System: MM1S tumours
# Assay: MM1S xenograft mouse model
# Format: in vivo, CB17 SCID mice
# Description: A CB17 SCID mice (n=7 each group) with palpable MM1S tumour implants were randomized and treated with control vehicle, a single dose of M2 (0.4 mg/kg), six doses of btz (0.4 mg/kg), or combination of M2 and btz (M2+btz) for 2 weeks. […] D Tumour tissue sections from each group were immunohistochemically analyzed for Ki-67 (original magnification, ×400). […] Tumours were removed at the same treatment day from representative mice.
# CB-17 SCID-mice were subcutaneously inoculated with 5.0×106 MM.1S cells in 100 μl of serum-free RPMI 1640 medium. When tumours were measurable approximately 3 weeks after MM-cell injection, mice (8 mice/group) were randomized and treated with vehicle alone, M2, btz, or M2 with btz. Tumour size was measured every third day in 2 dimensions using calipers, and tumour volume was calculated using the following formula: V=0.5a×b2, where “a” and “b” are the long and short diameter of the tumour, respectively. Animals were sacrificed when their tumours reached 2 cm^3.
# Following 3d-treatment, tumour from each group was harvested and cell lysates were made for immunoblotting. […] Immunohistochemical images were taken on Zeiss Inverted Fluorescence Microscope for Ki67. […]
# In vivo efficacy of sub-optimal doses M2 with btz was next evaluated in the MM1S xenograft mouse model. […]
structure (smiles),measurement,setting,value
"CC(C)C[C@H](NC(=O)[C@H](Cc1ccccc1)NC(=O)c1cnccn1)B(O)O [btz, Bortezomib]",MM1S tumour growth,"24d after treatment, single dose M2, 6 doses btz (0.4 mg/kg)",significantly delays
same,median overall survival,"Kaplan-Meier, follow-up 177 d",35 days
